This is an account of results in patent publication US4863951A, “Pharmacologically active amino-5,6,7,8-tetrahydronaphtho [2,3-B] furan compounds” (ADIR Et Cie, priority 1987, dated 1989).

Test [1] concerns aggression of isolated, bulbectomized rats. The experiment in a line: Antiaggressive effects: aggression of isolated, bulbectomized rats. The class given is in vivo. The settings on record: i.p. The source says:
(§1) The antiaggressive effects of the compounds of the invention were investigated by two methods, one of them testing for an inhibition of aggressive behavior in peviously isolated mice (Yen C. Y., Stanger A. L., and Millman N, Arch. Int. Pharmacodyn. Therap. (1959), 123, p. 179-185), and the other in isolated and bulbectomized rats (Garattini S. and Sigg E. B. "Aggressive Behaviour" p. 47-55 Ed. Excerpta Medica Found., Amsterdam, 1969).
(§2) (Tables IX and X, s=significant, p<0.05).

For test [2], the system named is ponto-geniculo-occipital (P.G.O.) waves induced by Ro4-1284. As to the kind of experiment: Antagonism of the ponto-geniculo-occipital (P.G.O.) waves induced by Ro4-1284. In kind it is in vivo. The conditions noted are these: Felis catus, iv, cats, i.v., read-out: ED50 (effective dose inhibiting by 50% the number of P.G.O. waves). The method, then:
(§3) The antidepressant effects of the compounds of the invention were investigated by assessing the antagonism of reserpine-induced hypothermia and the antagonism of the ponto-geniculo-occipital waves induced by the compound Ro4-1284 in cats.
This study was performed according to the method of Ruch-Monachon M. A., Jalfre M. and Haefely W. described in Arch. Int. Pharm. Therap., (1976), 219, No. 2, p. 251-346, and it enabled the effective dose (i.v) inhibiting by 50% (ED50) the number of P.G.O waves to be assessed.

Test [3] has as its system apomorphine-induced rearing-up. The experiment in a line: Antagonism of apomorphine-induced rearing-up behavior in mice. The class given is in vivo. The settings on record: apomorphine 0.75 mg.kg^-1 s.c.; for % inhibition of rearing-up: hydrochloride. As for the experimental part:
Studied in the test of antagonism of apomorphine-induced rearing-up following the subcutaneous administration of a dose of 0.75 mg.kg^-1 of this substance in mice, the compounds of general formula I act in a clear-cut manner at doses greater than or equal to 2.5 mg.kg^-1 (i.p.). The same results are observed when the compounds of general formula I are administered orally at a dose of 20 mg.kg^-1. The activity of the compounds was assessed according to the method described by Protais P, Costentin J and Schwartz J. C. in Psychopharmacology (1976), 50, p. 1-6.
(§4) (s=significant difference, p<0.05).

Test [4] deals with reserpine-induced hypothermia. The experiment in a line: Antagonism of reserpine-induced hypothermia. The class given is in vivo, Swiss CD male mice. The conditions noted are these: mice, reserpine 2.5 mg.kg^-1 i.p. As for the experimental part: as §3
The study is carried out on Swiss CD male mice (27-28 g). After distribution into groups of 10 animals each, reserpine is injected intraperitoneally at a dose of 2.5 mg.kg^-1. Three hours later, the compounds undergoing trial are administered intraperitoneally. The rectal temperature of the animals is measured one hour and two hours after the second treatment, and compared with the initial temperature To of these same animals, measured immediately before the administration of the compounds undergoing trial.

Test [5] deals with apomorphine-induced stereotypy. As to the kind of experiment: Antagonism of apomorphine-induced stereotypy in rats. In kind it is in vivo. The conditions noted are these: Rattus norvegicus, ip, 0.5 h, apomorphine 1.5 mg.kg^-1 i.p., 30 minutes. As for the experimental part:
(§5) The inhibitory activity of the compounds of the invention with respect to apomorphine- or amphetamine-induced stereotypy in rats was assessed using the scale of scoring of stereotyped movements described by Quinton R. M. and Halliwell G. in Nature (1963), 200, p. 178-179.
Apomorphine or amphetamine was administered to the animals intraperitoneally at a dose of 1.5 mg.kg^-1. The percentage inhibition (-) or potentiation (+) of the stereotypy score (% ISS) shown in Tables IV and V for apomorphine corresponds to a measurement time of 30 minutes. In contrast, the percentage inhibition of the stereotypy score shown in Table VI for amphetamine corresponds to a measurement time of 3 hours. […]

The subject of test [6] is isolation-induced aggression. As to the kind of experiment: Antiaggressive effects: isolation-induced aggression in mice. In kind it is in vivo. The settings on record: isolated mice, i.p.
Description: as §1, §2

In test [7] the test system is apomorphine-induced hypothermia. As to the kind of experiment: Antagonism with respect to apomorphine-induced hypothermia in mice. In kind it is in vivo. The settings on record: apomorphine 1 mg.kg^-1 s.c., after 2 hours; for % antagonism of hypothermia: hydrochloride. The method, then: Testing for an antagonism with respect to apomorphine-induced hypothermia in mice was performed according to the method described by CHERMAT R. and PONCELET M. in J. Pharmac. (1983), 14, No. 1, p. 93-97. The dose of apomorphine administered subcutaneously was 1 mg.kg^-1. Tables VII and VIII show the percentage antagonism of the hypothermia observed after 2 hours.

For test [8], the system named is amphetamine-induced stereotypy. The experiment in a line: Antagonism of amphetamine-induced stereotypy in rats. In kind it is in vivo. The settings on record: 3 hours. As for the experimental part:
as §5
Apomorphine or amphetamine was administered to the animals intraperitoneally at a dose of 1.5 mg.kg^-1. The percentage inhibition (-) or potentiation (+) of the stereotypy score (% ISS) shown in Tables IV and V for apomorphine corresponds to a measurement time of 30 minutes. In contrast, the percentage inhibition of the stereotypy score shown in Table VI for amphetamine corresponds to a measurement time of 3 hours.
as §4

Test [9] has as its system interoceptive stimulus of apomorphine. The experiment in a line: Drug discrimination in rats (generalization with apomorphine). The class given is in vivo. The settings on record: 2.5 mg.kg^-1 i.p., 30 minutes before test, hydrochloride. As for the experimental part: Rats were trained to discriminate between the effect of the interoceptive stimulus of apomorphine (0.2 mg.kg^-1 i.p.) and that of physiological saline, according to a principle described by Colpaert F. in "Drug discrimination application in C.N.S. Pharmacology" Ed. Elsevier Biomedical 1982, Amsterdam. […]
Under the experimental conditions employed, the behavior shown by the animals coincides with that noted in the case of administration of apomorphine.

Structures can show the parent of a compound that is named as a salt. Where two headings read alike, the source gives them in different places. Where only a bound is given, the exact number is not on record here.

One may read the ED50 as the dose at which the effect has come halfway, by size or by number of responders. For the molecule `CN(C)C1CCc2cc3c(cc2C1)OCC3` (racemic) [Example 6, dl-7-(N,N-Dimethylamino)-2,3,5,6,7,8-hexahydronaphtho[2,3-b]furan hydrochloride], in test [1] (2.5 mg.kg^-1), the “% of rats rendered non-aggressive” value was 30%. For the same molecule, the 50% effective dose (ED50) in test [2] was found to be 0.498 mg/kg. The change in vivo at 2.5 mg/kg was -17% in [3] (Mus musculus, ip, read-out: % inhibition of rearing-up, mice, i.p. dose 2.5 mg.kg^-1) and 6% in [7] (Mus musculus, ip, 2 h, read-out: % antagonism of hypothermia, mice, i.p. dose 2.5). Further, the change in vivo at 5 mg/kg in [3] (Mus musculus, ip, read-out: % inhibition of rearing-up, mice, i.p. dose 5 mg.kg^-1) is -54%; in test [7] (Mus musculus, ip, 2 h, read-out: % antagonism of hypothermia, mice, i.p. dose 5), -6%. Besides, the change in vivo at 10 mg/kg is -94% in test [3] (Mus musculus, ip, read-out: % inhibition of rearing-up, mice, i.p. dose 10 mg.kg^-1); -48% in test [5] (read-out: % ISS (inhibition (-) or potentiation (+) of the stereotypy score), rats, i.p. dose 10 mg.kg^-1); -25% in test [7] (Mus musculus, ip, 2 h, read-out: % antagonism of hypothermia, mice, i.p. dose 10). Besides, the change in vivo at 20 mg/kg in [3] (Mus musculus, ip, read-out: % inhibition of rearing-up, mice, i.p. dose 20 mg.kg^-1) was -100%; in [5] (read-out: % ISS (inhibition (-) or potentiation (+) of the stereotypy score), rats, i.p. dose 20 mg.kg^-1), -58%; in test [7] (Mus musculus, ip, 2 h, read-out: % antagonism of hypothermia, mice, i.p. dose 20), -48%. Moreover, the “% inhibition of hypothermia” value in test [4] (2.5 mg.kg^-1 i.p.) is listed as -1%; in [4] (5 mg.kg^-1 i.p.), “+1%”; in test [4] (10 mg.kg^-1 i.p.) it was -24%; in [4] (20 mg.kg^-1 i.p.) it was -20%. Besides, the figures for the “% of pairs of mice showing no sign of fighting” value in test [6] (2.5 mg.kg^-1), in test [6] (5 mg.kg^-1) and in test [6] (10 mg.kg^-1) were 40%, 44% and 78%, respectively.

As for `O=C(O)CCCCCCNC1CCc2cc3c(cc2C1)OCC3` (racemic) [Example 12, dl-7-{N-(2,3,5,6,7,8-Hexahydronaphtho[2,3-b]furan-7-yl)amino}heptanoic acid hydrochloride], the 50% effective dose (ED50) in test [2] is > 2.52 mg/kg. In addition, the change in vivo at 10 mg/kg in test [3] (Mus musculus, ip, mice, i.p. dose 10 mg.kg^-1, read-out: % inhibition of rearing-up) was -17%; in test [5] (rats, i.p. dose 10 mg.kg^-1, read-out: % ISS (inhibition (-) or potentiation (+) of the stereotypy score)), 19%; in test [7] (Mus musculus, ip, mice, i.p. dose 10, read-out: % antagonism of hypothermia), -4%. The change in vivo at 20 mg/kg in test [3] (Mus musculus, ip, mice, i.p. dose 20 mg.kg^-1, read-out: % inhibition of rearing-up) was -20%; in test [5] (rats, i.p. dose 20 mg.kg^-1, read-out: % ISS (inhibition (-) or potentiation (+) of the stereotypy score)), -3%; in [7] (Mus musculus, ip, mice, i.p. dose 20, read-out: % antagonism of hypothermia), -2%. In addition, the “% inhibition of hypothermia” value is -23% in [4] (5 mg.kg^-1 i.p.), -45% in test [4] (10 mg.kg^-1 i.p.) and -18% in test [4] (20 mg.kg^-1 i.p.). The “% ISS (inhibition (-) or potentiation (+) of the stereotypy score)” value in test [8] (i.p. dose 5 mg.kg^-1, amphetamine 1.5 mg.kg^-1 i.p.) is reported as “+11%”; in test [8] (i.p. dose 10 mg.kg^-1, amphetamine 1.5 mg.kg^-1 i.p.), “+14%”.

Take `NC1CCc2cc3c(cc2C1)OCC3` (stereo not drawn) [Example 3, d-7-Amino-2,3,5,6,7,8-hexahydronaphtho[2,3-b]furan hydrochloride]: in test [1] (2.5 mg.kg^-1, hydrochloride), the “% of rats rendered non-aggressive” value is 64%. Also, the ED50 in [2] was 0.13 mg/kg. For the same molecule, the “% inhibition of rearing-up” value in test [3] (mice, i.p. dose 10 mg.kg^-1) is on record as -72%; in test [3] (mice, i.p. dose 20 mg.kg^-1), -79%. Also, the “% of animals which generalize” value in [9] was found to be 88%. In [9], the “Number of animals showing the effect of generalization with apomorphine” value is 8/9. The “% of pairs of mice showing no sign of fighting” value in test [6] (2.5 mg.kg^-1, hydrochloride) is given as 56%; in test [6] (5 mg.kg^-1, hydrochloride), 78%. Further, the “% antagonism of hypothermia” value is on record as -72% in test [7] (mice, i.p. dose 2.5); -79% in test [7] (mice, i.p. dose 5); -91% in [7] (mice, i.p. dose 10); -86% in test [7] (mice, i.p. dose 20).
